{"source": "patent US9714243B2", "about": "“4-pyridinonetriazine derivatives as HIV integrase inhibitors” (Merck Sharp & Dohme Corp., priority 2012, dated 2017)", "test_system": "HIV-1 (NL4-3 strain)", "assay": "Assay for inhibition of HIV replication (ViKinG; infected MT4-GFP cells)", "assay_type": "cell-based", "experimental": "Assay for inhibition of HIV replication\nMT4-GFP cells (250,000 cells/ml) were bulk-infected with HIV-1 (NL4-3 strain) at low multiplicity of infection (MOI) in RPMI+10% FBS for 24 hours. […] Test compounds were serial-diluted in DMSO on ECHO. The infected MT4-GFP cells were added to a 384-well poly-D-lysine coated black plate with clear bottom in which the diluted test compounds were placed. The cells were seeded at 8,000 cells per well and the final DMSO concentration was 0.4%. The infected cells (Green GFP cells) were quantified at both 24 and 48 hours post incubation using Acumen eX3. Viral reproductive ratio (R0) was determined using the number of infected cells at 48 hours divided by the number of infected cells at 24 hours. Percent viral growth inhibition was calculated by [1−(R−Rtripledrug)/(RDMSO−Rtripledrug)]*100. Compound potency IP or IC50 was determined by a 4-parameter dose response curve analysis.", "key": {"[1]": {"settings": "Human immunodeficiency virus 1, NL43, MT4-GFP cells infected with HIV-1 NL4-3, 0% normal human serum (NHS), read-out: ViKinG IP (nM) with 0% NHS"}, "[2]": {"settings": "Human immunodeficiency virus 1, NL43, MT4-GFP cells infected with HIV-1 NL4-3, 10% normal human serum (NHS), read-out: ViKinG IP (nM) with 10% NHS"}, "[3]": {"settings": "Human immunodeficiency virus 1, NL43, MT4-GFP cells infected with HIV-1 NL4-3, 100% normal human serum (NHS), read-out: ViKinG IP (nM) with 100% NHS"}, "[4]": {"settings": "MT4-GFP cells infected with HIV-1 NL4-3, 0% normal human serum (NHS), read-out: ViKinG IP (nM) with 0% NHS"}, "[5]": {"settings": "MT4-GFP cells infected with HIV-1 NL4-3, 100% normal human serum (NHS), read-out: ViKinG IP (nM) with 100% NHS"}, "[6]": {"settings": "MT4-GFP cells infected with HIV-1 NL4-3, 10% normal human serum (NHS), read-out: ViKinG IP (nM) with 10% NHS"}}, "note": "Read-outs that look alike come from different tables or passages of the source."}
{"molecule": "CN1C(=O)c2c(O)c(=O)c(-c3nnc(Cc4ccc(F)cc4F)s3)cn2N(C)C12CCC(O)C2", "note": "(stereo not shown) [Compound 79]", "values": [{"measurement": "IC50", "setting": "[1]", "value": 3.11, "unit": "nM"}, {"measurement": "IC50", "setting": "[2]", "value": 40.9, "unit": "nM"}]}
{"molecule": "CCOC1CCC2(CC1)Cn1cc(C(=O)NCc3ccc(F)cc3F)c(=O)c(O)c1C(=O)N2CC", "note": "(stereo not shown) [Compound 182]", "values": [{"measurement": "IC50", "setting": "[1]", "value": 4.02, "unit": "nM"}, {"measurement": "IC50", "setting": "[3]", "value": 45.5, "unit": "nM"}]}
{"molecule": "CCCOC1CCC2(CC1)N(CC)C(=O)c1c(O)c(=O)c(-c3nnc(Cc4ccc(F)cc4F)s3)cn1N2C", "note": "(stereo not shown) [Compound 60]", "values": [{"measurement": "IC50", "setting": "[3]", "value": 226, "unit": "nM"}, {"measurement": "IC50", "setting": "[4]", "value": 10.8, "unit": "nM"}]}
{"molecule": "CCN1C(=O)c2c(O)c(=O)c(-c3nnc(Cc4ccc(F)cc4F)s3)cn2N(C)C12CCC(OC(C)C)CC2", "note": "(stereo not shown) [Compound 62]", "values": [{"measurement": "IC50", "setting": "[4]", "value": 8.11, "unit": "nM"}, {"measurement": "IC50", "setting": "[5]", "value": 159, "unit": "nM"}]}
{"molecule": "COC(=O)[C@]12C[C@H]1CCC21N(C)C(=O)c2c(O)c(=O)c(-c3nnc(C(C)c4ccc(F)cc4F)s3)cn2N1C", "note": "(stereo partly shown) [Compound 206]", "values": [{"measurement": "IC50", "setting": "[1]", "value": 15.4, "unit": "nM"}, {"measurement": "IC50", "setting": "[2]", "value": 62.4, "unit": "nM"}]}
{"molecule": "CCN1C(=O)c2c(O)c(=O)c(-c3nnc(Cc4ccc(F)cc4)s3)cn2N(C)C1(C)COC", "note": "(racemic) [Compound 223]", "values": [{"measurement": "IC50", "setting": "[3]", "value": 369, "unit": "nM"}]}
{"molecule": "CN1C(=O)c2c(O)c(=O)c(-c3nnc(Cc4ccc(F)cc4F)s3)cn2N(C)C12CCC(C)(C(=O)O)CC2", "note": "(stereo not shown) [Compound 83]", "values": [{"measurement": "IC50", "setting": "[4]", "value": 151, "unit": "nM"}, {"measurement": "IC50", "setting": "[6]", "value": 755, "unit": "nM"}]}
{"molecule": "CCc1noc(C2CCC3(CC2)N(CC)C(=O)c2c(O)c(=O)c(-c4nnc(Cc5ccc(F)cc5F)s4)cn2N3C)n1", "note": "(stereo not shown) [Compound 57]", "values": [{"measurement": "IC50", "setting": "[1]", "value": 18.1, "unit": "nM"}, {"measurement": "IC50", "setting": "[3]", "value": 145, "unit": "nM"}]}
{"molecule": "O=C1NC2(CCC2)Cn2cc(-c3nnc(Cc4ccc(F)cc4F)s3)c(=O)c(O)c21", "note": "[Compound 210]", "values": [{"measurement": "IC50", "setting": "[1]", "value": 4.11, "unit": "nM"}, {"measurement": "IC50", "setting": "[2]", "value": 68.4, "unit": "nM"}]}
{"molecule": "CCCOC1CCC2(CC1)N(CC)C(=O)c1c(O)c(=O)c(C(=O)NCc3ccc(F)cc3F)cn1N2C", "note": "(stereo not shown) [Compound 194]", "values": [{"measurement": "IC50", "setting": "[4]", "value": 25, "unit": "nM"}, {"measurement": "IC50", "setting": "[5]", "value": 400, "unit": "nM"}]}
{"molecule": "CN1C2CCCCN2C(=O)c2c(O)c(=O)c(-c3nnc(Cc4ccc(F)cc4)s3)cn21", "note": "(stereo not shown) [Compound 153]", "values": [{"measurement": "IC50", "setting": "[3]", "value": 1430, "unit": "nM"}, {"measurement": "IC50", "setting": "[6]", "value": 16.5, "unit": "nM"}]}
{"molecule": "CCN1C(=O)c2c(O)c(=O)c(-c3nnc(Cc4ccc(F)cc4F)s3)cn2N(C)C12CCCc1sccc12", "note": "(racemic) [Compound 42]", "values": [{"measurement": "IC50", "setting": "[1]", "value": 92.5, "unit": "nM"}, {"measurement": "IC50", "setting": "[2]", "value": 321, "unit": "nM"}]}
{"molecule": "COc1cc(CNC(=O)C2CCC3(CC2)N(C)C(=O)c2c(O)c(=O)c(-c4nnc(Cc5ccc(F)cc5F)s4)cn2N3C)on1", "note": "(stereo not shown) [Compound 135]", "values": [{"measurement": "IC50", "setting": "[2]", "value": 290, "unit": "nM"}, {"measurement": "IC50", "setting": "[4]", "value": 76.3, "unit": "nM"}]}
{"molecule": "CN1C(=O)c2c(O)c(=O)c(-c3nnc(Cc4ccc(F)cc4F)s3)cn2N(C)C12CCC(C(=O)NC1(C)CC1)CC2", "note": "(stereo not shown) [Compound 113]", "values": [{"measurement": "IC50", "setting": "[4]", "value": 22.2, "unit": "nM"}, {"measurement": "IC50", "setting": "[6]", "value": 72.2, "unit": "nM"}]}
{"molecule": "CN1C(=O)c2c(O)c(=O)c(-c3nnc(Cc4ccc(F)cc4F)s3)cn2N(C)C12CCC(C(=O)NCC1CCS(=O)(=O)C1)CC2", "note": "(stereo not shown) [Compound 137]", "values": [{"measurement": "IC50", "setting": "[2]", "value": 707, "unit": "nM"}, {"measurement": "IC50", "setting": "[4]", "value": 108, "unit": "nM"}]}
{"molecule": "COC1CCC2(CC1)Cn1cc(C(=O)NCc3ccc(F)cc3F)c(=O)c(O)c1C(=O)N2C", "note": "(stereo not shown) [Compound 181]", "values": [{"measurement": "IC50", "setting": "[1]", "value": 2.48, "unit": "nM"}, {"measurement": "IC50", "setting": "[3]", "value": 28.9, "unit": "nM"}]}
{"molecule": "CN1C(=O)c2c(O)c(=O)c(-c3nnc(Cc4ccc(F)cc4F)s3)cn2N(C)C12CCC(C)(C(=O)O)CC2", "note": "(stereo not shown) [Compound 84]", "values": [{"measurement": "IC50", "setting": "[4]", "value": 51.5, "unit": "nM"}, {"measurement": "IC50", "setting": "[6]", "value": 209, "unit": "nM"}]}
{"molecule": "CN1C2CCCCN2C(=O)c2c(O)c(=O)c(-c3nnc(Cc4ccc(F)cc4)s3)cn21", "note": "(stereo not shown) [Compound 154]", "values": [{"measurement": "IC50", "setting": "[6]", "value": 33.9, "unit": "nM"}, {"measurement": "IC50", "setting": "[5]", "value": 1590, "unit": "nM"}]}
{"molecule": "COCCN1C(=O)c2c(O)c(=O)c(-c3nnc(Cc4ccc(F)cc4F)s3)cn2N(C)C12CC[C@H]1C[C@H]12", "note": "(mixture of isomers) [Compound 202]", "values": [{"measurement": "IC50", "setting": "[1]", "value": 8.36, "unit": "nM"}, {"measurement": "IC50", "setting": "[2]", "value": 1180, "unit": "nM"}]}
{"molecule": "CN(CC(F)(F)F)C(=O)C1CCC2(CC1)N(C)C(=O)c1c(O)c(=O)c(-c3nnc(Cc4ccc(F)cc4F)s3)cn1N2C", "note": "(stereo not shown) [Compound 108]", "values": [{"measurement": "IC50", "setting": "[1]", "value": 24, "unit": "nM"}, {"measurement": "IC50", "setting": "[2]", "value": 16.1, "unit": "nM"}, {"measurement": "IC50", "setting": "[3]", "value": 478, "unit": "nM"}]}
{"molecule": "CCN1C(=O)c2c(O)c(=O)c(-c3nnc(Cc4ccc(F)cc4F)s3)cn2N(C)C12CCCCC(O)C2", "note": "(stereo not shown) [Compound 45]", "values": [{"measurement": "IC50", "setting": "[1]", "value": 4.07, "unit": "nM"}, {"measurement": "IC50", "setting": "[3]", "value": 122, "unit": "nM"}]}
{"molecule": "CN1C(=O)c2c(O)c(=O)c(-c3nnc(Cc4ccc(F)cc4F)s3)cn2N(C)C12CCC(C(=O)N1CC(F)(F)C1)CC2", "note": "(stereo not shown) [Compound 120]", "values": [{"measurement": "IC50", "setting": "[4]", "value": 5.51, "unit": "nM"}, {"measurement": "IC50", "setting": "[6]", "value": 11.7, "unit": "nM"}, {"measurement": "IC50", "setting": "[5]", "value": 516, "unit": "nM"}]}
{"molecule": "CCN1C(=O)c2c(O)c(=O)c(-c3nnc(Cc4ccc(F)cc4F)s3)cn2N(C)C12CCC(CC(=O)OC)CC2", "note": "(stereo not shown) [Compound 21]", "values": [{"measurement": "IC50", "setting": "[2]", "value": 31.8, "unit": "nM"}]}
